Like-named read-outs stand apart in the source and are kept apart here.
How the values were obtained:
[1] = test system: IL-6 secretion in the human mast cell line HMC 1.1; test: IL-6 production inhibition assay (IL-33 stimulated HMC 1.1 cells, IL-6 ELISA); format: cell-based; settings: for inhibition at 0.1 µM: 0.1 μM compound, read-out: Inhibition of hIL-6 production (%) 0.1 μM; for inhibition at 0.1 µM / inhibition at 1 µM / inhibition at 10 µM: 24 hours; for inhibition at 1 µM: 1 μM compound, read-out: Inhibition of hIL-6 production (%) 1 μM; for inhibition at 10 µM: 10 μM compound, read-out: Inhibition of hIL-6 production (%) 10 μM; for EC50: read-out: Inhibition of hIL-6 production EC50
Method: Human mast cell line HMC 1.1 cells were cultured in medium (Iscove's Modified Dulbecco's Medium, IMDM, HyClone) supplemented with […] fetal bovine serum (FBS, HyClone) and 1% antibiotics and maintained at 37° C. with 5% CO2.
HMC 1.1 cells, which are non-adherent cells, were cultured in 0.5 mL of culture medium containing 200 nM of IL-33 wild type human recombinant protein after centrifugation of cells in culture flasks filled to […] capacity and incubated for 24 hours with […], 10 μM, 25 μM, 30 μM or 50 μM of Example compound.
Medium was harvested by centrifugation (2,000×g, 5 min) and stored at −80° C. until ELISA assay.
Experiments were performed according to the protocol using the Human IL-6 ELISA kit (abCam).
The average of the three values obtained in triplicate was calculated and the amount of IL-6 secretion was measured using a standard curve. The measured IL-6 secretion was converted to 100% based on the vehicle treatment sample value to obtain the vehicle %.

[2] = test system: Human liver cancer cell line HepG2 cells; test: Cellular viability, WST-8 assay, without or with human liver microsomes; format: cell-based; settings: for Cellular viability (%) (+) microsome: HepG2, with human liver microsomes; for Cellular viability (%) (−) microsome: HepG2, without human liver microsomes
Method: (§1) Human liver cancer cell line HepG2 cells were cultured in a medium (high glucose Dulbecco's Modified Eagle Medium, DMEM, HyClone) supplemented with 10% fetal bovine serum (FBS, HyClone) and 1% antibiotic in a thermostat maintained at 37° C. with 5% CO2.
(§2) HepG2 cells, which are adherent cells, were […] or presence of human liver microsomes (Gibco) and NADPH regenerating system.
(§3) Cell cultures were exchanged using […] of medium (high glucose Dulbecco's Modified Eagle Medium, DMEM, HyClone) and incubated for 24 hours.
(§4) After adding 10 μL of WST-8 (abCam), the absorbance was obtained at 460 nm after 5 seconds of orbital shaking with a microplate reader (Tecan, Spark©) 2 hours later.
(§5) The mean of the three values obtained in triplicate was calculated and expressed as % cellular viability compared to vehicle treatment.

IL33 and ST2 binding [3] = biological target: T1, IL33 and ST2 binding (Homo sapiens, UniProt O95760);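 further: plate ELISA with coated Flag-tagged human IL-33 and His-tagged human ST2, bound ST2 detected by anti-His HRP and TMB absorbance at 450 nm, 2 h compound incubation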
T1 sequence (O95760 112-270 limits assumed): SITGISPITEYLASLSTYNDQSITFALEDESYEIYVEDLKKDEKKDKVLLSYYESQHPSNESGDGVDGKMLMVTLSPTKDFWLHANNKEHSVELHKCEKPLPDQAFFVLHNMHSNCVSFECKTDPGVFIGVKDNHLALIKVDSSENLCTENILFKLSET

IL33 and ST2 binding [4] = biological target: T1, IL33 and ST2 binding; test: biochemical
[5] = Cellular viability, WST-8 assay, without or with human liver microsomes; format: cell-based
Method: as §1, §2, §3, §4, §5

[6] = HepG2, with human liver microsomes, read-out: CC50 (μM) (+) microsome
[7] = HepG2 cells, HepG2, without human liver microsomes, read-out: CC50 (μM) (−) microsome

| SMILES | inhibition at 0.1 µM [1] | inhibition at 1 µM [1] | inhibition at 10 µM [1] | EC50 [1] | Cellular viability (%) (+) microsome ([2]; at 135 μM) | Cellular viability (%) (−) microsome ([2]; at 135 μM) | inhibition (IL33 and ST2 binding [3]; 30 µM) | inhibition (IL33 and ST2 binding [3]; 100 µM) | IC50 (IL33 and ST2 binding [4]) | CC50 at 24 h [5, 6] | CC50 at 24 h [5, 7] | Cellular viability (%) (+) microsome ([2]; at 100 μM) | Cellular viability (%) (−) microsome ([2]; at 100 μM) | Cellular viability (%) (+) microsome ([2]; at 160 μM) | Cellular viability (%) (−) microsome ([2]; at 160 μM) |
| --- | --- | --- | --- | --- | --- | --- | --- | --- | --- | --- | --- | --- | --- | --- | --- |
| CCOC(=O)c1nc(-c2ccc(C(F)(F)F)cc2)oc1-c1ccccc1 [Compound 31, Ethyl 5-phenyl-2-(4-(trifluoromethyl)phenyl)oxazole-4-carboxylate] | 46% | 56% | 69% | 0.23 µM | 66 at % | 83 at % | 110% | 109% | 0.78 µM | – | – | – | – | – | – |
| CN(C)CCNC(=O)c1nc(-c2cccc(Cl)c2)oc1-c1ccccc1 [Compound 240, 2-(3-Chlorophenyl)-N-(2-(dimethylamino)ethyl)-5-phenyloxazole-4-carboxamide] | – | 6% | 44% | 3.7 µM | – | – | 7% | 70% | – | 6.36 µM | 5.46 µM | 50 at % | 45 at % | – | – |
| CCNC(=O)c1nc(-c2ccc(C(F)(F)F)cc2)oc1-c1ccccc1 [Compound 294, N-Ethyl-5-phenyl-2-(4-(trifluoromethyl)phenyl)oxazole-4-carboxamide] | 50% | 88% | 94% | 0.13 µM | – | – | 95% | – | – | – | – | – | – | 90 at % | 95 at % |
| CCOC(=O)c1nc(-c2ccc(Cl)c(C(F)(F)F)c2)oc1-c1ccccc1 [Compound 98, Ethyl 2-(4-chloro-3-(trifluoromethyl)phenyl)-5-phenyloxazole-4-carboxylate] | – | -12% | 30% | – | – | – | 110% | 110% | 5.21 µM | – | – | 90 at % | 83 at % | – | – |
| CN1CCN(CCNC(=O)c2nc(-c3cc(F)cc(F)c3)oc2-c2ccccc2[N+](=O)[O-])CC1 [Compound 238, 2-(3,5-Difluorophenyl)-N-(2-(4-methylpiperazin-1-yl)ethyl)-5-(2-nitrophenyl)oxazole-4-carboxamide] | – | 14% | 45% | 6.3 µM | – | – | 40% | 103% | – | 21.3 µM | 19 µM | 53 at % | 49 at % | – | – |
| CCOC(=O)c1nc(-c2ccc(C(F)(F)F)cc2)oc1-c1ccc([N+](=O)[O-])cc1 [Compound 34, Ethyl 5-(4-nitrophenyl)-2-(4-(trifluoromethyl)phenyl)oxazole-4-carboxylate] | – | – | – | – | – | – | 108% | 108% | 0.91 µM | – | – | 85 at % | 87 at % | – | – |
| CCOC(=O)c1nc(-c2ccc(C(F)(F)F)cc2)oc1-c1ccccc1OC [Compound 44, Ethyl 5-(2-methoxyphenyl)-2-(4-(trifluoromethyl)phenyl)oxazole-4-carboxylate] | – | 38% | 77% | 2.56 µM | – | – | 100% | – | 1.26 µM | – | – | 99 at % | 68 at % | – | – |
| CCNC(=O)c1nc(-c2ccc(SC)cc2)oc1-c1ccccc1 [Compound 316, N-Ethyl-2-(4-(methylthio)phenyl)-5-phenyloxazole-4-carboxamide] | 25% | 69% | 77% | 0.35 µM | – | – | 47% | – | – | – | – | – | – | 100 at % | 84 at % |
| CCOC(=O)c1nc(-c2cccc(Cl)c2)oc1-c1ccccc1 [Compound 75, Ethyl 2-(3-chlorophenyl)-5-phenyloxazole-4-carboxylate] | – | 5% | 26% | – | – | – | 93% | 108% | 11.7 µM | – | – | 100 at % | 106 at % | – | – |
| CNC(=O)c1nc(-c2ccc(C(F)(F)F)cc2)oc1-c1cccc(SC)c1 [Compound 290, N-Methyl-5-(3-(methylthio)phenyl)-2-(4-(trifluoromethyl)phenyl)oxazole-4-carboxamide] | 28% | 49% | 59% | – | 60 at % | 47 at % | 112% | 112% | 4.51 µM | – | – | – | – | – | – |
| CSc1ccc(-c2nc(C(=O)NCCN(C)C)c(-c3ccccc3)o2)cc1 [Compound 271, N-(2-(Dimethylamino)ethyl)-2-(4-(methylthio)phenyl)-5-phenyloxazole-4-carboxamide] | – | 14% | 69% | 0.86 µM | – | – | 31% | 105% | – | 6.12 µM | 3.74 µM | 52 at % | 45 at % | – | – |
| CCNC(=O)c1nc(-c2ccc(C(F)(F)F)cc2)oc1-c1cccnc1 [Compound 307, N-Ethyl-5-(pyridin-3-yl)-2-(4-(trifluoromethyl)phenyl)oxazole-4-carboxamide] | 61% | 69% | 79% | 0.11 µM | – | – | 106% | – | – | – | – | – | – | 108 at % | 105 at % |
| CCOC(=O)c1nc(-c2ccc(C(F)(F)F)cc2)oc1-c1ccccc1OC(F)(F)F [Compound 52, Ethyl 5-(2-(trifluoromethoxy)phenyl)-2-(4-(trifluoromethyl)phenyl)oxazole-4-carboxylate] | – | 22% | 48% | 2.26 µM | – | – | 115% | 115% | 7.99 µM | – | – | 97 at % | 117 at % | – | – |
| CCNC(=O)c1nc(-c2ccc(C(F)(F)F)cc2)oc1-c1cccc(SC)c1 [Compound 291, N-Ethyl-5-(3-(methylthio)phenyl)-2-(4-(trifluoromethyl)phenyl)oxazole-4-carboxamide] | 25% | 40% | 66% | 0.49 µM | – | – | 112% | 111% | 0.64 µM | – | – | – | – | 102 at % | 106 at % |
| CCOC(=O)c1nc(-c2ccc(C(F)(F)F)cc2)oc1-c1cccc(C#N)c1 [Compound 55, Ethyl 5-(3-cyanophenyl)-2-(4-(trifluoromethyl)phenyl)oxazole-4-carboxylate] | – | 45% | 52% | 0.09 µM | – | – | 115% | 116% | – | – | – | 91 at % | 90 at % | – | – |
| CCCNC(=O)c1nc(-c2ccc(C(F)(F)F)cc2)oc1-c1cccnc1 [Compound 308, N-Propyl-5-(pyridin-3-yl)-2-(4-(trifluoromethyl)phenyl)oxazole-4-carboxamide] | – | 56% | 62% | – | – | – | – | – | – | – | – | – | – | 29 at % | 27 at % |
| CCOC(=O)c1nc(-c2ccc(SC)cc2)oc1-c1ccccc1 [Compound 90, Ethyl 2-(4-(methylthio)phenyl)-5-phenyloxazole-4-carboxylate] | 33% | 54% | 55% | 0.49 µM | 74 at % | 53 at % | – | – | – | 40.8 µM | 14 µM | – | – | – | – |

From patent US20240287052A1, “NOVEL OXAZOLE DERIVATIVE AND PHARMACEUTICAL COMPOSITION FOR PREVENTING OR TREATING ALLERGIC DISEASES COMPRISING THE SAME” (AZCURIS CO., LTD., priority 2021, published 2024)
